The values that follow come from patent US7371775B2, “7-carboxymethyloxy-3′,4′,5-trimethoxy flavone monohydrate, the preparation method and uses thereof” (Dong-A Pharmaceuticals Co., Ltd, priority 2003, dated 2008).

Data set [1] deals with gastric mucosal damage induced by ethanolic-HCl. Description: Gastric mucosal damaged model induced by ethanolic-HCl (ulcer index). It is filed as in vivo, SD male rats. The conditions noted are these: rats, oral; for ED50: Rattus norvegicus, 1 hour before 150 mM HCl-80% ethanol, ulcer index. The method, then: SD male rats (250-350 g) were fasted for 24 hours. The compound of the present invention was orally administered in suspension of 5% HPMC, and after 1 hour, 1.5 ml of 150 mM HCl-80% ethanol was orally administered. After 1 hour, the rats were sacrificed and the stomachs were extracted to measure ulcer index. The ulcer index was shown by the area (mm^2) of hemorrhage lesion (Mizui, T, et al., Jpn. J. Pharmacol. 1983, 33: 939).
Rebamipide [2-(4-chlorobenzoylamino)-3-(2-(1H)-quinolinone-4-yl)propanonic acid] (Trade Name: Mucosta) was used as a control medicine.

Data set [2] relates to TNBS-induced colitis model. Description: Model of inflammatory bowel diseases induced with TNBS (lesion score). It is filed as in vivo, male SD rats. On the procedure:
The modified method of Shibata et al. (Dig. Endosc. 1993, 5: 13) was used. 7 week-old male SD rats (CRJ) were fasted for a day, and the rats were put under anesthesia and canula (diameter 3 mm) was inserted into the anus to the depth of 8 cm. 25 mg/ml of TNBS (Trinitrobenzene sulfonic acid) dissolved in 50% ethanol solution was injected to each rat and the rats were positioned at feature of tail up for 1 minute. The solution flowing out was removed and the rats were once washed with 1.5 ml of saline solution. After colitis was induced, the compound of the present invention was administered orally or rectally from the next day of inducing to the 6th day. For control medicine, sulfasalazine […] was used for oral administration and prednisolone was used for rectal administration. And for control group, 5% HPMC was administered. On the 7th day of experiment, each group of the rats was put under ether anesthesia for autopsy. The colon was extracted. After 1% formalin solution was injected into the cavity of the extracted colon to inflate, the both ends of it were bonded with each other, which was then fixed in 1% formalin solution for 2 hours. The all-fixed colon was cut to lengthy direction and washed to remove surrounding fat tissues and connective fissaes. Cecum was removed and the weight of the colon and the rectum was measured. The area of ulcer lesion and inflammatory region were measured to mark scores according to the criterion. Then they were fixed in 10% neutral formalin solution, and the tissue examination of lesion site was performed by a general method to mark scores according to criterion.
Clinical symptoms: Daily, clinical symptoms and survival of the animals were observed. The weight of animals was measured at the beginning day, the 3rd day and the 8th day of the experiment.
Observation with naked eye: The number and the width of the ulcer and lesion area formed in the large intestine were measured and recorded. By using modified Wallace's method (Can. J. Physiol. Pharmacol., 1988, 66: 422), lesion examined with the naked eye was scored and the average value of each group was compared. The standard of lesion scores as criterion of the damage of the colon by Wallace's method […] is as follows.
(0: normal, non-damaged, 1: congestion without ulcer, 2: congestion and thickening of intestinal wall without ulcer, 3: an ulcer lesion without thickening of intestinal wall, 4: more than two ulcerous/inflammatory lesion, 5: more than two ulcerous/inflammatory lesion or the length of ulcerous/inflammatory lesion is more than 1 cm, 6-10: when the length of lesion is over 2 cm, one point increases every time 1 cm of the length of ulcerous/inflammatory increases, for example: when the ulcer length is 3 cm, the point is 7)
Pathological tissue examination: The colon was trimmed at 3 cm interval from the rectum to the cecum, including the site of lesion examined with the naked eye, to make at least 4 specimens per an individual. Pathological tissue examination on the specimens was performed and the results were scored by modified method of Moyama (Ann. Clin. Lab. Sci., 1990, 20: 420). And the highest score was regarded as the score of an individual. When the lesion cannot be examined with the naked eye, the other specimen having lesion was trimmed, at 3 cm interval, from another individual.

The nature of data set [3]: Test of conversion of ethanol solvate into monohydrate: weight changes at 25° C., 75% relative humidity. It is filed as physicochemical. On the procedure: 7-carboxymethyloxy-3′,4′,5-trimethoxy flavone.monohydrate prepared in the above example 1 or example 2 was measured by using a weighing bottle (6 cm in diameter). 1 g of the 7-carboxymethyloxy-3′,4′,5-trimethoxy flavone.monohydrate was prepared as a sample. The sample was kept in a receptacle in which temperature was set at 25° C. and 75% relative humidity. On the let, 1st, 2nd, 3rd and 6th day, the weight of samples were measured.
Weight changes of 7-carboxymethyloxy-3′,4′,5-trimethoxy flavone.ethanol solvate prepared in the above example 3 were also investigated by the same method as mentioned above, and the results are shown in Table 2.

Data set [4] in a line: Hygroscopicity test: weight changes at 25° C., 75% relative humidity. It is filed as physicochemical. On the procedure: 7-carboxymethyloxy-3′,4′,5-trimethoxy flavone.monohydrate prepared in the above example 1 or example 2 was exactly measured by using a weighing bottle (6 cm in diameter). 1 g of the 7-carboxymethyloxy-3′,4′,5-trimethoxy flavone.monohydrate was prepared as a sample. The sample was kept in a vessel in which temperature was set; at 25° C. and 75% relative humidity was maintained. Weight changes of the sample were measured after 2, 4, and 6 hours and on the first day, on the 3rd day, and on the 6th day. The amount of weight change was calculated as percentage to the starting weight of the sample and the results are shown in Table 1.
Weight changes of 7-carboxymethyloxy-3′,4′,5-trimethoxy flavone.anhydride prepared in the comparative example were also measured by the same method as mentioned above, and the results are shown in Table 1.

Where [5] appears, read: listed as 7-carboxymethyloxy-3′,4′,5-trimethoxy flavone.monohydrate.

For orientation: ED50 means the midpoint of the dose-response relation.

Like-named read-outs stand apart in the source and are kept apart here.

`O=C(NC(Cc1cc(=O)[nH]c2ccccc12)C(=O)O)c1ccc(Cl)cc1` (centres unmarked) [Rebamipide, 2-(4-chlorobenzoylamino)-3-(2-(1H)-quinolinone-4-yl)propanonic acid, reference compound] came in with an ED50 in data set [1] of 44.2 mg/kg.
Regarding `O=C(O)c1cc(/N=N/c2ccc(S(=O)(=O)Nc3ccccn3)cc2)ccc1O` [Sulfasalazine, reference compound], the Lesion score in data set [2] (orally administered, 100 mg/kg p.o, control 5% HPMC 9.0) came to 7.7.
On to `COc1ccc(-c2cc(=O)c3c(OC)cc(OCC(=O)O)cc3o2)cc1OC` [Ethanol solvate, 7-carboxymethyloxy-3′,4′,5-trimethoxy flavone.ethanol solvate], for which, in data set [3], the “weight change / conversion (in words)” value is given as “converted into monohydrate”. The “Weight changes according to the time lapse (%)” value (from here on “Weight changes according … (%)”) is recorded as 0% in data set [3] (0 day); −4.1% in data set [3] (1 day); −6.5% in data set [3] (2 day); −6.5% in data set [3] (3 day); −6.5% in data set [3] (6 day). The “weight decrease (average)” value in data set [3] (after one day) is 4.1%; in data set [3] (after two days, constant thereafter) it was 6.5%.
For `COc1ccc(-c2cc(=O)c3c(OC)cc(OCC(=O)O)cc3o2)cc1OC` [Monohydrate, 7-carboxymethyloxy-3′,4′,5-trimethoxy flavone.monohydrate], the “Weight changes according … (%)” value in data set [4] (0 h) is 0%; in data set [4] (2 h), −0.2%; in data set [4] (4 h), −0.3%; in data set [4] (6 h), “+0.2%”; in data set [4] (1 day), −0.3%; in data set [4] (3 day), “+0.3%”. Besides, the “Weight changes according … (%)” value in data set [4] (6 day) is recorded as “+0.3%”; in data set [3] (0 day), 0%; in data set [3] (1 day) it was −0.3%; in data set [3] (2 day), “+0.3%”; in data set [3] (3 day), “+0.3%”; in data set [3] (6 day), “+0.3%”. The “weight change / hygroscopicity (in words)” value in data set [4] (setting [5]) is “did not show any weight change”; in data set [4] (listed as monohydrate), “no weight change”. In addition, the “weight change / conversion (in words)” value in data set [3] (setting [5]) is on record as “did not show any weight change”. Further, it took a dose of 0.33 mg/kg to reach the 50% effect level in data set [1] (ED50). Besides, the “protecting effect on the damage of gastric mucosa relative to Rebamipide” value in data set [1] (ratio of ED50) is “at least 100 times”. For the same compound, the “effect on the TNBS-induced inflammatory colitis model (in words)” value in data set [2] (oral and rectal administration) is listed as “showed inhibiting effect”. For the same compound, the Lesion score in data set [2] (orally administered, 0.3 mg/kg p.o, control 5% HPMC 9.0) was found to be 7.5; in data set [2] (orally administered, 3 mg/kg p.o, control 5% HPMC 9.0), 5.9; in data set [2] (rectally administered, 0.3 mg/kg, control 5% HPMC 5.3), 2.0.
For the compound `COc1ccc(-c2cc(=O)c3c(OC)cc(OCC(=O)O)cc3o2)cc1OC` [Anhydride, reference compound], the “Weight changes according … (%)” value in data set [4] (0 h) was 0%; in data set [4] (2 h) it was “+3.4%”; in data set [4] (2 h, listed as 7-carboxymethyloxy-3′,4′,5-trimethoxy flavone.anhydride), 3.4%; in data set [4] (4 h), “+4.7%”; in data set [4] (6 h), “+4.7%”; in data set [4] (1 day) it was “+4.6%”. For the same compound, the “Weight changes according … (%)” value is “+4.5%” in data set [4] (3 day) and “+4.6%” in data set [4] (6 day). Moreover, the “weight increase (average)” value in data set [4] (from the 4th hour) was 4.6%.
`C[C@]12C=CC(=O)C=C1CC[C@@H]1[C@@H]2[C@@H](O)C[C@@]2(C)[C@H]1CC[C@]2(O)C(=O)CO` [Prednisolone, reference compound] yielded a Lesion score in data set [2] (rectally administered, 1 mg/kg, control 5% HPMC 5.3) of 4.8.
